The nature of this series: pKa values of pH probes (control of pKa by changing structure). The format is physicochemical. The following applies: pH probe. The text has this: By using the pH probe described in the present invention, change of pH can be detected in a range including pKa of the compound according to the fluorescence ratio method or the absorbance ratio method. Compounds 1 to 5 have different pKa values, and accordingly, pH ranges suitable for the detection are different among them. Therefore, a pH probe suitable for a pH range desired to be detected can be chosen and used by utilizing the difference. Similarly, by suitably choosing R^3, R^4 and/or R^5 in the general formula (I), or R^13, R^14 and/or R^15 in the general formula (IA), a pH probe having a desired pKa and thus suitable for measurement of a desired pH range can be designed and provided.
As for `CN1CCN(C2=C(/C=C/C3=[N+](C)c4ccccc4C3(C)C)CCC/C2=C\C=C2\N(C)c3ccccc3C2(C)C)CC1` [Compound 4], the pKa amounted to 6.8.

Molecule `CN(C)CCN(C)C1=C(/C=C/C2=[N+](C)c3ccccc3C2(C)C)CCC/C1=C\C=C1\N(C)c2ccccc2C1(C)C` [Compound 2] displayed a pKa of 8.1.

As to `CN1/C(=C/C=C2\CCCC(/C=C/C3=[N+](C)c4ccccc4C3(C)C)=C2N2CCN(Cc3ccccc3)CC2)C(C)(C)c2ccccc21` [Compound 1], the pKa stood at 5.5.

Molecule `CCN(CC)CCN(C)C1=C(/C=C/C2=[N+](C)c3ccccc3C2(C)C)CCC/C1=C\C=C1\N(C)c2ccccc2C1(C)C` [Compound 3] returned a pKa of 8.7.

`CN1/C(=C/C=C2\CCCC(/C=C/C3=[N+](C)c4ccccc4C3(C)C)=C2N2CCN(c3ccccc3)CC2)C(C)(C)c2ccccc21` [Compound 5] came in with a pKa of 2.1.
